Activity calls are given as the source filed them. The rule behind the calls is not given here.
How the values were obtained:
Mus musculus [1] = organism: Mus musculus; assay: Inhibition of sRANKL-induced […] degradation in mouse RAW264 cells at 10 to 50 uM pre-treated for 2 hrs before sRANKL stimulation measured 15 mins after sRANKL stimulation by Western blotting method; format: cell-based
[2] = Inhibition of sRANKL-induced TRAP activity in mouse RAW264 cells by p-nitrophenolate release based TRAP assay; format: functional, cell-based; settings: RAW264.7
RAW264 [3] = assay: Inhibition of sRANKL-induced TRAP activity in mouse RAW264 cells at 20 uM by p-nitrophenolate release based TRAP assay; format: functional, cell-based
Mus musculus [4] = organism: Mus musculus; assay: Inhibition of sRANKL-induced AKT phosphorylation in mouse RAW264 cells at 20 uM pre-treated for 2 hrs before sRANKL stimulation measured 15 mins after sRANKL stimulation by Western blotting method; format: cell-based
Mus musculus [5] = organism: Mus musculus; assay: Inhibition of sRANKL-induced […] degradation in mouse RAW264 cells at 20 uM pre-treated for 2 hrs before sRANKL stimulation measured 15 mins after sRANKL stimulation by Western blotting method; format: cell-based
RAW264 [6] = assay: Inhibition of sRANKL-induced osteoclastogenesis in mouse RAW264 cells assessed as reduction in TRAP-positive multinuclear osteoclasts formation at 20 uM incubated for 4 days by TRAP assay; format: functional, cell-based
[7] = Inhibition of chymotrypsin-like activity of proteasome in rat liver using Suc-Leu-Leu-Val-Tyr-MCA fluorogenic substrate

In the case of C[C@@]12CCC(=O)c3coc(c31)C(=O)c1cc3c(cc12)C(=O)C=CC3=O [HELENAQUINONE], the inhibition (Mus musculus [1]) is reported as “Active”, the IC50 [2] is reported as 2000 nM and the inhibition (RAW264 [3]) is reported as “Active”. The inhibition (Mus musculus [4]) was “Active”, the inhibition (Mus musculus [5]) was “Active” and the inhibition (RAW264 [6]) was “Active”. It also gave an IC50 [7] of 600 nM.

— ChEMBL document CHEMBL3351929, “Halenaquinone inhibits RANKL-induced osteoclastogenesis” (Bioorg Med Chem Lett, 2014)
